Laboratory results taken from patent US12648928B2, “Intervention strategy for prevention or treatment of diabetes mellitus, autoimmune disease, inflammatory disease or cardiovascular disease” (ACADEMISCH MEDISCH CENTRUM, priority 2020, dated 2026).

What was measured:
Format in all cases: cell-based
human monocytes = assay: In vitro stimulation of human monocytes; conditions: LPS stimulation 24 hours, 100 μM (FIG. 10)
Protocol: The mononuclear cell fraction was isolated from the blood of healthy volunteers (Sanquin Bloodbank, Amsterdam, The Netherlands) by density centrifugation using Lymphoprep™ (Axis-Shield) and isolated using human CD14 magnetic beads and MACS® cell separation columns (Miltenyi Biotec) according to the manufacturer's instructions. Isolated primary human monocytes were counted and seeded at 1>10^6 cells/mL in 24-well plates with 1 ml medium supplemented with 10% fetal bovine serum, 100 U/ml penicillin, 100 μg/ml streptomycin, 2 mM L-glutamine. After seeding, cells were stimulated with 10 ng/ml LPS or 25 mM D-glucose (both Sigma-Aldrich) for 24 hours with/without 100 μM 6-BT. Afterwards, cells were lysed with Tripure isolation reagent (Roche) and stored at −80° C. until RNA isolation.
Total RNA was extracted from Tripure isolation reagent cell lysates. RNA was converted to cDNA by with iScript kit (BioRad). Quantitative polymerase chain reaction (qPCR) was performed using SYBR Green-SensiMix (Bioline) on a CFX384 Touch Real-Time PCR Detection System (BioRad). The delta delta Ct method was used to calculate gene expression as fold-change compared to control (unstimulated conditions).

[1] = test system: murine bone marrow-isolated monocytes or bone marrow-derived macrophages; assay: In vitro stimulation of murine monocytes / bone marrow-derived macrophages, cytokine ELISA
Protocol: Naïve bone marrow monocytes were isolated from BM cells. Briefly, hind legs were removed from 3 mice, cleaned from surrounding muscles. The femur and tibia bones were trimmed at their extremities, the BM content was flushed out with cold PBS using a 10 ml syringe and a 25G needle and filtered through a 40 μm strainer. Red blood cells (RBC) were lysed with 1× RBC lysis buffer (Biolegend) for 5 min. on ice. CD11b+ monocytes were further purified by positive selection using a cocktail of CD11 b magnetic beads (Miltenyi Biotec, #130-049-601) and magnetizing MS columns (Miltenyi Biote) according to the manufacturer's instructions. Subsequently, monocytes were seeded in F-bottom 96-well plates at 1×10^5 cells per well in RPMI1640 supplemented with 10% heat-inactivated fetal bovine serum, penicillin (100 U/ml), streptomycin (100 μg/ml), L-glutamine (2 mM) […]. Monocytes were activated with 10 μg/ml LPS (Sigma-Aldrich) and subjected to treatment with 6-BT (10/100 μM), LysoPC(20:0) (10/50 μM), MA-GPC (10/50/100 μM), or appropriate vehicle. Cells were kept in a final volume of 200 μl/well for 24 hours, after which supernatant was harvested and stored at −80° C.
(§1) Bone marrow-derived macrophages (BMDM) and DC (BMDC) were obtained by differentiating freshly isolated BM cells from femur and tibia bones (as above described) of C57/B16 mice (N=3 per experiment). For BMDM, BM cells were seeded at 3×10^6 cells per 10 cm dish and cultured for 7 days in 12 ml RPMI1640 medium with 20% fetal bovine serum, 30% L-929 cell conditioned media, as source of murine macrophage colony-stimulating factor (M-CSF). For BMDC, BM cells were seeded at 0.5×10^6/ml cells in 25 ml in 10 cm dishes and cultured for 7 days in presence of GM-CSF in 5% FBS-RPMI1640 medium. After differentiation, BMDM/DCs were harvested, counted and seeded at a density of 1×10^5 cells per well in a F-bottom 96-well plate and left to adhere for 20 hours before experiments were performed. Macrophages were activated with 10 μg/ml polyinosinic-polycytidylic acid poly(I.C) (InvivoGen) for 24 hours in presence or not of 6-BT (10/100 μM), LysoPC(20:0) (10/50 μM), or MA-GPC (10/50/100 μM) in a final volume of 200 μl/well. At the end of the assay, supernatant was harvested and stored at −80° C.
(§2) Specific ELISAs (R&D Systems) were utilized to measure the concentration of TNFα, IFNβ, and IFNγ in cell supernatant of murine monocytes, macrophages ad T cells, respectively, according to the manufacturer's instructions. The concentration of insulin after 24-hour treatment with metabolites or after GSIS were determined using Rat insulin ELISA (Mercodia) according to the manufacturer's instructions. GSIS was calculated by subtracting the concentration of insulin at 1 mM glucose to the insulin rate at 22 mM glucose.
Here, murine bone marrow-isolated monocytes (Christ A., Western Diet Triggers NLRP3-Dependent Innate Immune Reprogramming. Cell 2018) or bone marrow-derived macrophages (Swanson K V, A noncanonical function of cGAMP in inflammasome priming and activation. JEM 2017) were exposed for 24 hours to the indicated concentrations of 6-BT (10-100 μM) in presence or not of 10 μg/ml LPS, 10 μg/ml P3C or 10 μg/ml poly(I.C).

murine DC = assay: In vitro stimulation of murine dendritic cells, cytokine secretion; conditions: GM-CSF differentiated DC
Protocol: as §1, with “Macrophages were activated with 10 μg/ml polyinosinic-polycytidylic acid poly(I.C) (InvivoGen) for 24 hours in presence or not of 6-BT (10/100 μM), LysoPC(20:0) (10/50 μM), or MA-GPC (10/50/100 μM) in a final volume of 200 μl/well. At the end of the assay, supernatant was harvested and stored at −80° C.” left out
as §2, with “glucose. […]” for “glucose.”

SMILES: N[C@@H](Cc1c[nH]c2cc(Br)ccc12)C(=O)O [6-BT, 6-bromotryptophan]
- cytokine production by human monocytes (human monocytes): reduces cytokine production
- secretion of TNFα upon TLR4 engagement ([1]; 10-100 μM, 24 hours, 10 μg/ml LPS, ELISA (FIG. 14)): can inhibit the secretion
- secretion of TNFα upon TLR2 engagement ([1]; 10-100 μM, 24 hours, 10 μg/ml P3C, ELISA (FIG. 14)): can inhibit the secretion
- secretion of IFNbeta upon TLR3 activation ([1]; 10-100 μM, 24 hours, 10 μg/ml poly(I.C), ELISA (FIG. 14)): can inhibit the secretion
- type 1 IFN secretion ([1]; PolyI:C for 24 hours, TLR3 stimulation (FIG. 9)): impair type 1 IFN secretion
- anti-inflammatory effects on monocytes ([1]; monocytes isolated from murine bone marrow, 6-BT vs tryptophan): anti-inflammatory effects are specific for the 6-bromotryptophan molecule
- cytokine secretion by monocytes ([1]; murine monocytes CD11b+ activated with LPS (10 μg/ml) for 24 hours, TLR4 stimulation (FIG. 8)): halt cytokine secretion
- secretion of IFNbeta by DC (murine DC; TLR3 activation with 10 μg/ml poly(I.C) (FIG. 15)): inhibits the secretion
- secretion of TNFα by DC (murine DC; TLR4 activation with 100 μg/ml LPS (FIG. 15)): inhibits the secretion
